Data on ten compounds can be found in ChEMBL document CHEMBL4480396 (Eur J Med Chem, 2019).

Format in all cases: functional, cell-based
The subject of one test is PC-3. Put plainly: Antiproliferative activity against human PC3 cells measured after 48 hrs by MTT assay. The note with it: PC-3, 48 h. A general note: Tetrazolium assays rely on reduction of a dye to a coloured formazan, in cell work by metabolically active cells.
Test [1] relates to MGC-803. Put plainly: Antiproliferative activity against human MGC803 cells measured after 48 hrs by MTT assay. To be noted: MGC-803, 48 h.
A further test concerns HepG2. Put plainly: Antiproliferative activity against human HepG2 cells measured after 48 hrs by MTT assay. To be noted: HepG2, 48 h.
In test [2] the test system is MGC-803. Put plainly: Antiproliferative activity against human MGC803 cells measured after 48 hrs by CCK8 assay. To be noted: MGC-803, 48 h.

The IC50 is the concentration that gives 50% inhibition. A higher IC50 goes with weaker potency in that assay. On to `COc1ccc(CN(C(=O)Cn2cc(CSC3=NCCS3)nn2)c2cc(OC)c(OC)c(OC)c2)cc1`, for which the IC50 in the test on PC-3 came out at 16 µM; with MGC-803 [1], 1.61 µM; in the test on HepG2, 25 µM.
In the case of `COc1ccc(CN(C(=O)Cn2cc(CSc3nc4ccccc4o3)nn2)c2cc(OC)c(OC)c(OC)c2)cc1`, the results for the half-inhibitory concentration (IC50) with PC-3, with MGC-803 [1] and in the test with HepG2 were 5.05 µM, 1.85 µM and 15.6 µM, respectively.
For `COc1ccc(CN(C(=O)Cn2cc(COc3cc(=O)oc4ccccc34)nn2)c2cc(OC)c(OC)c(OC)c2)cc1` the same measures were 5.14 µM, 3.66 µM and 6.25 µM.
Consider `COc1cc(N2C(=O)[C@H](c3cccs3)[C@H]2c2cccc(N=[N+]=[N-])c2)cc(OC)c1OC`, for which, in the test on MGC-803 [2], half-maximal inhibition (IC50) required 0.106 µM.
Regarding `COc1ccc(CN(C(=O)Cn2cc(CN3c4ccccc4Sc4ccccc43)nn2)c2cc(OC)c(OC)c(OC)c2)cc1`, the IC50 in the test with PC-3, in the test with MGC-803 [1] and in the test with HepG2 was above 80 µM throughout.
With `COc1cc2c(c(OC)c1OC)-c1ccc(OC)c(=O)cc1[C@@H](NC(C)=O)CC2` [COLCHICINE], the values for the IC50 in the test with PC-3, in the test on MGC-803 [1] and in the test with HepG2 were 0.59 µM, 0.27 µM and 4.6 µM, respectively.
`C#CCOc1ccc2c(C)cc(=O)oc2c1`: the IC50 in the test on PC-3, with MGC-803 [1] and in the test on HepG2 was above 80 µM each time.
In the case of `COc1ccc(CN(C(=O)Cn2cc(CSc3nncs3)nn2)c2cc(OC)c(OC)c(OC)c2)cc1`, the IC50 in the test on PC-3 stood at 16.5 µM; in the test with MGC-803 [1], 5 µM; with HepG2, 38.6 µM.
In the case of `COc1ccc(CN(C(=O)Cn2cc(CN3c4ccccc4Sc4ccc(C(F)(F)F)cc43)nn2)c2cc(OC)c(OC)c(OC)c2)cc1`, the half-inhibitory concentration (IC50) in the test on PC-3, with MGC-803 [1] and in the test on HepG2 was above 80 µM each time.
In the case of `COc1ccc(CN(C(=O)Cn2cc(COc3ccc4ccc(=O)oc4c3)nn2)c2cc(OC)c(OC)c(OC)c2)cc1`, the figures for the IC50 with PC-3, with MGC-803 [1] and in the test with HepG2 were 0.86 µM, 0.18 µM and 1.3 µM, respectively.
